Experiment: Fluorescence properties and quantum yield measurements of the BAA library
Type: physicochemical
Parameters: FWHM (full-width-at half max): unit not given here
Details: anhydrous DMSO
Description: General Instruments. Synthesized sample purification was performed with an Agilent 1260 Infinity HPLC utilizing a C18 column (150mm×21.2 mm). MS (HRMS, ESI) spectra data was collected with an Agilent 6244 TOF LC/MS with diode array detector VL+ and C18 column (4.6 mm×50 mm). Absorbance and fluorescence data were measured on a SpectraMax M5 Microplate reader. NMR spectra, ^1H and ^13C, were recorded on a Bruker ARK400 spectrometer. BAA microscopy screening in cells for organelle specificity and signal-to-background ratio was completed with an Axio Zeiss Light Microscope and 63× oil immersion objective.
Fluorescence Properties and Quantum Yield Measurements. Spectroscopic characterizations were performed in anhydrous DMSO in polystyrene 96 well plate. Analysis included the maximum absorbance wavelength, maximum fluorescence emission wavelength, full-width-at half max, and quantum yield. Quantum yields (φfl) were determined by comparing the area under the emission spectrum of the BAA compound to a reference fluorophore solution at three concentrations using equation 1, where Grad represents the gradient from the plots of integrated fluorescence intensity vs absorbance at three concentrations and q is the refractive index of the solvent. Fluorescein in 0.1 M NaOH (φfl=0.91)^3 was the reference for samples with a max absorbance up to 510 nm, where an excitation of 470 nm was used with the emission integrated between 490 to 800 nm. Rhodamine B in ethanol (φfl=0.70) was the reference for samples with a max absorbance between 511-595 nm, where an excitation of 525 nm was used with the emission integrated between 545 to 800 nm. Cresyl violet in methanol (φfl=0.54)^4 was the reference for samples with a max absorbance above 595 nm, where an excitation of 570 nm was used with the emission integrated between 590 to 800 nm.

Compound	Stokes Shift [nm]
COc1ccc2c(/C=C(/CC(=O)O)c3ccc4n3[B-](F)(F)[N+]3=C(/C=C/c5c(Cl)ncc6cc(OC)ccc56)C=C(C)C3=C4)c(Cl)ncc2c1 [BAA-1b]	17
COc1cc(/C=C/C2=[N+]3C(=Cc4ccc(CCC(=O)O)n4[B-]3(F)F)C(C)=C2)cc(I)c1OC [BAA-3a]	10
COc1cc(/C=C(/CC(=O)O)c2ccc3n2[B-](F)(F)[N+]2=C(/C=C/c4cc(I)c(OC)c(OC)c4)C=C(C)C2=C3)cc(I)c1OC [BAA-3b]	13
CC1=CC(/C=C/c2ccccc2N2CCN(C)CC2)=[N+]2C1=Cc1ccc(CCC(=O)O)n1[B-]2(F)F [BAA-4a]	19
COc1cc(OC)c(/C=C/C2=[N+]3C(=Cc4ccc(CCC(=O)O)n4[B-]3(F)F)C(C)=C2)c(OC)c1 [BAA-5a]	23
COc1ccc2c(c1)C(/C=C/C1=[N+]3C(=Cc4ccc(CCC(=O)O)n4[B-]3(F)F)C(C)=C1)C=N2 (stereo not shown) [BAA-6a]	34
COc1ccc(/C=C/C2=[N+]3C(=Cc4ccc(CCC(=O)O)n4[B-]3(F)F)C(C)=C2)c(OC)c1C [BAA-7a]	18
COc1ccc(/C=C(/CC(=O)O)c2ccc3n2[B-](F)(F)[N+]2=C(/C=C/c4ccc(OC)c(C)c4OC)C=C(C)C2=C3)c(OC)c1C [BAA-7b]	19
COc1ccc(/C=C/C2=[N+]3C(=Cc4ccc(CCC(=O)O)n4[B-]3(F)F)C(C)=C2)c2ccccc12 [BAA-8a]	29
COc1ccc(B(O)O)c(/C=C/C2=[N+]3C(=Cc4ccc(CCC(=O)O)n4[B-]3(F)F)C(C)=C2)c1 [BAA-9a]	10
CCN(CC)c1ccc(/C=C(/CC(=O)O)c2ccc3n2[B-](F)(F)[N+]2=C(/C=C/c4ccc(N(CC)CC)cc4)C=C(C)C2=C3)cc1 [BAA-10b]	82
CCCSc1ncc(/C=C/C2=[N+]3C(=Cc4ccc(CCC(=O)O)n4[B-]3(F)F)C(C)=C2)cn1 [BAA-12a]	27
COc1ccc(/C=C/C2=[N+]3C(=Cc4ccc(CCC(=O)O)n4[B-]3(F)F)C(C)=C2)cc1F [BAA-13a]	10
CC1=CC(/C=C/c2ccc(CC(C)C)s2)=[N+]2C1=Cc1ccc(CCC(=O)O)n1[B-]2(F)F [BAA-14a]	13

Same assay, conditions: anhydrous DMSO, polystyrene 96 well plate

Compound	λmax ABS [nm]	λmax EM [nm]
COc1ccc2c(/C=C(/CC(=O)O)c3ccc4n3[B-](F)(F)[N+]3=C(/C=C/c5c(Cl)ncc6cc(OC)ccc56)C=C(C)C3=C4)c(Cl)ncc2c1 [BAA-1b]	580	597
COc1cc(/C=C/C2=[N+]3C(=Cc4ccc(CCC(=O)O)n4[B-]3(F)F)C(C)=C2)cc(I)c1OC [BAA-3a]	569	579
COc1cc(/C=C(/CC(=O)O)c2ccc3n2[B-](F)(F)[N+]2=C(/C=C/c4cc(I)c(OC)c(OC)c4)C=C(C)C2=C3)cc(I)c1OC [BAA-3b]	574	587
CC1=CC(/C=C/c2ccccc2N2CCN(C)CC2)=[N+]2C1=Cc1ccc(CCC(=O)O)n1[B-]2(F)F [BAA-4a]	581	600
COc1cc(OC)c(/C=C/C2=[N+]3C(=Cc4ccc(CCC(=O)O)n4[B-]3(F)F)C(C)=C2)c(OC)c1 [BAA-5a]	592	615
COc1ccc2c(c1)C(/C=C/C1=[N+]3C(=Cc4ccc(CCC(=O)O)n4[B-]3(F)F)C(C)=C1)C=N2 (stereo not shown) [BAA-6a]	609	643
COc1ccc(/C=C/C2=[N+]3C(=Cc4ccc(CCC(=O)O)n4[B-]3(F)F)C(C)=C2)c(OC)c1C [BAA-7a]	582	600
COc1ccc(/C=C(/CC(=O)O)c2ccc3n2[B-](F)(F)[N+]2=C(/C=C/c4ccc(OC)c(C)c4OC)C=C(C)C2=C3)c(OC)c1C [BAA-7b]	581	600
COc1ccc(/C=C/C2=[N+]3C(=Cc4ccc(CCC(=O)O)n4[B-]3(F)F)C(C)=C2)c2ccccc12 [BAA-8a]	594	623
COc1ccc(B(O)O)c(/C=C/C2=[N+]3C(=Cc4ccc(CCC(=O)O)n4[B-]3(F)F)C(C)=C2)c1 [BAA-9a]	569	579
CCN(CC)c1ccc(/C=C(/CC(=O)O)c2ccc3n2[B-](F)(F)[N+]2=C(/C=C/c4ccc(N(CC)CC)cc4)C=C(C)C2=C3)cc1 [BAA-10b]	632	714
CCCSc1ncc(/C=C/C2=[N+]3C(=Cc4ccc(CCC(=O)O)n4[B-]3(F)F)C(C)=C2)cn1 [BAA-12a]	589	616
COc1ccc(/C=C/C2=[N+]3C(=Cc4ccc(CCC(=O)O)n4[B-]3(F)F)C(C)=C2)cc1F [BAA-13a]	576	586
CC1=CC(/C=C/c2ccc(CC(C)C)s2)=[N+]2C1=Cc1ccc(CCC(=O)O)n1[B-]2(F)F [BAA-14a]	594	607

Same assay, conditions: anhydrous DMSO; emission

Compound	FWHM (full-width-at half max)
COc1ccc2c(/C=C(/CC(=O)O)c3ccc4n3[B-](F)(F)[N+]3=C(/C=C/c5c(Cl)ncc6cc(OC)ccc56)C=C(C)C3=C4)c(Cl)ncc2c1 [BAA-1b]	40
COc1cc(/C=C/C2=[N+]3C(=Cc4ccc(CCC(=O)O)n4[B-]3(F)F)C(C)=C2)cc(I)c1OC [BAA-3a]	31
COc1cc(/C=C(/CC(=O)O)c2ccc3n2[B-](F)(F)[N+]2=C(/C=C/c4cc(I)c(OC)c(OC)c4)C=C(C)C2=C3)cc(I)c1OC [BAA-3b]	34
CC1=CC(/C=C/c2ccccc2N2CCN(C)CC2)=[N+]2C1=Cc1ccc(CCC(=O)O)n1[B-]2(F)F [BAA-4a]	56
COc1cc(OC)c(/C=C/C2=[N+]3C(=Cc4ccc(CCC(=O)O)n4[B-]3(F)F)C(C)=C2)c(OC)c1 [BAA-5a]	47
COc1ccc2c(c1)C(/C=C/C1=[N+]3C(=Cc4ccc(CCC(=O)O)n4[B-]3(F)F)C(C)=C1)C=N2 (stereo not shown) [BAA-6a]	64
COc1ccc(/C=C/C2=[N+]3C(=Cc4ccc(CCC(=O)O)n4[B-]3(F)F)C(C)=C2)c(OC)c1C [BAA-7a]	63
COc1ccc(/C=C(/CC(=O)O)c2ccc3n2[B-](F)(F)[N+]2=C(/C=C/c4ccc(OC)c(C)c4OC)C=C(C)C2=C3)c(OC)c1C [BAA-7b]	56
COc1ccc(/C=C/C2=[N+]3C(=Cc4ccc(CCC(=O)O)n4[B-]3(F)F)C(C)=C2)c2ccccc12 [BAA-8a]	61
COc1ccc(B(O)O)c(/C=C/C2=[N+]3C(=Cc4ccc(CCC(=O)O)n4[B-]3(F)F)C(C)=C2)c1 [BAA-9a]	32
CCN(CC)c1ccc(/C=C(/CC(=O)O)c2ccc3n2[B-](F)(F)[N+]2=C(/C=C/c4ccc(N(CC)CC)cc4)C=C(C)C2=C3)cc1 [BAA-10b]	102
CCCSc1ncc(/C=C/C2=[N+]3C(=Cc4ccc(CCC(=O)O)n4[B-]3(F)F)C(C)=C2)cn1 [BAA-12a]	88
COc1ccc(/C=C/C2=[N+]3C(=Cc4ccc(CCC(=O)O)n4[B-]3(F)F)C(C)=C2)cc1F [BAA-13a]	44
CC1=CC(/C=C/c2ccc(CC(C)C)s2)=[N+]2C1=Cc1ccc(CCC(=O)O)n1[B-]2(F)F [BAA-14a]	70

Same assay, conditions: anhydrous DMSO; relative to reference fluorophore at three concentrations

Compound	φfl (quantum yield)
COc1ccc2c(/C=C(/CC(=O)O)c3ccc4n3[B-](F)(F)[N+]3=C(/C=C/c5c(Cl)ncc6cc(OC)ccc56)C=C(C)C3=C4)c(Cl)ncc2c1 [BAA-1b]	0.62
COc1cc(/C=C/C2=[N+]3C(=Cc4ccc(CCC(=O)O)n4[B-]3(F)F)C(C)=C2)cc(I)c1OC [BAA-3a]	0.61
COc1cc(/C=C(/CC(=O)O)c2ccc3n2[B-](F)(F)[N+]2=C(/C=C/c4cc(I)c(OC)c(OC)c4)C=C(C)C2=C3)cc(I)c1OC [BAA-3b]	0.70
CC1=CC(/C=C/c2ccccc2N2CCN(C)CC2)=[N+]2C1=Cc1ccc(CCC(=O)O)n1[B-]2(F)F [BAA-4a]	0.43
COc1cc(OC)c(/C=C/C2=[N+]3C(=Cc4ccc(CCC(=O)O)n4[B-]3(F)F)C(C)=C2)c(OC)c1 [BAA-5a]	0.83
COc1ccc2c(c1)C(/C=C/C1=[N+]3C(=Cc4ccc(CCC(=O)O)n4[B-]3(F)F)C(C)=C1)C=N2 (stereo not shown) [BAA-6a]	0.18
COc1ccc(/C=C/C2=[N+]3C(=Cc4ccc(CCC(=O)O)n4[B-]3(F)F)C(C)=C2)c(OC)c1C [BAA-7a]	0.29
COc1ccc(/C=C(/CC(=O)O)c2ccc3n2[B-](F)(F)[N+]2=C(/C=C/c4ccc(OC)c(C)c4OC)C=C(C)C2=C3)c(OC)c1C [BAA-7b]	0.43
COc1ccc(/C=C/C2=[N+]3C(=Cc4ccc(CCC(=O)O)n4[B-]3(F)F)C(C)=C2)c2ccccc12 [BAA-8a]	0.50
COc1ccc(B(O)O)c(/C=C/C2=[N+]3C(=Cc4ccc(CCC(=O)O)n4[B-]3(F)F)C(C)=C2)c1 [BAA-9a]	0.35
CCN(CC)c1ccc(/C=C(/CC(=O)O)c2ccc3n2[B-](F)(F)[N+]2=C(/C=C/c4ccc(N(CC)CC)cc4)C=C(C)C2=C3)cc1 [BAA-10b]	0.01
CCCSc1ncc(/C=C/C2=[N+]3C(=Cc4ccc(CCC(=O)O)n4[B-]3(F)F)C(C)=C2)cn1 [BAA-12a]	0.10
COc1ccc(/C=C/C2=[N+]3C(=Cc4ccc(CCC(=O)O)n4[B-]3(F)F)C(C)=C2)cc1F [BAA-13a]	0.19
CC1=CC(/C=C/c2ccc(CC(C)C)s2)=[N+]2C1=Cc1ccc(CCC(=O)O)n1[B-]2(F)F [BAA-14a]	0.44

— US20170233414A1, “DERIVATIVES OF BODIPY” (OREGON HEALTH & SCIENCE UNIVERSITY, priority 2016, published 2017)
